From article PMC9296036, “A peptide interfering with the dimerization of oncogenic KITENIN protein and its stability suppresses colorectal tumour progression” (Clinical and Translational Medicine, 2022) come the findings set out here.

In the test the test system is CT-26/KITENIN-V5 tumours. Description: Syngeneic subcutaneous tumour model, CT-26/KITENIN-V5 cells in BALB/c mice. It counts as in vivo, mouse. The note with it: CT-26/KITENIN-V5, KDIP 1 and 5 mg/kg intravenously every other day for 2 weeks, dose dependent. As to the method: The CT‐26 cell/syngeneic mouse model was used to investigate the in vivo effects of KDIP on colorectal tumourigenesis, as it is reported that a syngeneic mouse tumour model is good for testing the anticancer effects of candidate substances.[25], [26] Male Balb/c mice (5‐week old) were purchased from DaMul Science, Korea and acclimated for 1 week prior to subcutaneous injection of syngeneic CT‐26/EV (3 × 10^6) or CT‐26/KITENIN cells (1 × 10^6) into the dorsum. Tumour volume was calculated using the following equation: V = 1/2 × a × b […], where a and b are the longest and shortest diameters of the tumour (in millimetres), respectively. Tumour volume was measured every other day for 14 days to verify the effects of KDIP. […]
Effect of KAI1 C‐terminal interacting tetraspanin (KITENIN) dimerization‐interfering peptide (KDIP) on tumour growth and metastasis in in vivo mouse model of colorectal cancer (CRC). […] For the evaluation of metastasis, total fluorescence emitted from liver nodules expressing iRFP was measured and counted (left panel) or metastatic tumour growth was counted as nodules that migrated to the surface of the liver, and a metastatic score was obtained by multiplying it with size (middle panel). Metastatic score or total fluorescence is represented as mean ± SEM. […]

Ends that are not written are not given here.

YARVRRRGPRRWRLVSDEAV [KDIP]: the “tumour volume (in words)” value is recorded as “significantly reduced”.
